Entries after “also recorded” stand apart in the source; their conditions may differ. Read-outs that look alike come from different tables or passages of the source.
Experiments:
[1] = test system: Abca4^−/−Rdh8^−/− (Dko) retinal cultures; assay: ex vivo Dko retinal cultures incubated with atRAL (morphology, LDH); type: cell-based; settings: 6 h at 37° C; for effect on atRAL-induced cell death rate (LDH assay): Ret-NH2 30 μM or Apo 300 μM together with 30 μM atRAL
Method: FIGS. 11(A-B) illustrate images showing retinal degeneration is induced by atRAL in ex vivo Dko retinal cultures. Retinas were removed from the eyecups of 4-wk-old Abca4^−/−Rdh8^−/− (Dko) mice and cultured for 16 h at 37° C. Retinas were then incubated further with/without 30 μM of atRAL in the presence/absence of experimental drugs for 6 h at 37° C. Vehicle (DMSO), retinylamine (Ret-NH2) at 30 μM, or apocynin (Apo) at 300 μM was applied together with atRAL. (A) Retinal morphology was examined after incubation with atRAL. […] Bars indicate SD (n=3). *P<0.05.
(§1) Eyes were enucleated, washed with a penicillin-streptomycin solution (Sigma), and rinsed with Hank's balanced salt solution (HyClone). Prepared mouse eyecups were flattened by creating retinal flaps. Flattened retinas were transferred onto filter paper and the retina was gently peeled off from the RPE/choroid. All these procedures were performed under a surgical microscope. Each retina on filter paper was placed into a well of a 12-well plate filled with 0.5 mL of DMEM (HyClone) with 10% FBS and incubated for 16 h at 37° C. Retinas then were washed twice with 0.5 mL of fresh DMEM containing 10% FBS and finally incubated again with/without 30 μM of atRAL for 6 h at 37° C. A lactate dehydrogenase (LDH) assay was performed to determine cellular death rates with a LDH activity assay kit (BioVision). The percentage of cytotoxicity was calculated as [(a retina with atRAL—a retina without atRAL)/(lysis control—a retina without atRAL)]×100.

[2] = test system: retinal explant tissue cultures; type: cell-based; settings: 6 h at 37° C, WT retinas; for protection of retinal morphology against atRAL-induced damage: Ret-NH2 30 μM or apocynin 300 μM together with 30 μM atRAL; for prevention of atRAL-induced photoreceptor apoptosis (TUNEL staining): retinylamine 30 μM or apocynin 300 μM together with 30 μM atRAL
Method: FIGS. 6(A-B) illustrate images and a plot showing retinal degeneration is induced by atRAL in ex vivo retinal cultures. Retinas were removed from the eyecups of 4-wk-old C57BL/6J mice and cultured for 16 h at 37° C. Then retinas were incubated further with/without 30 μM of atRAL in the presence/absence of experimental drugs for 6 h at 37° C. Vehicle (DMSO), retinylamine (Ret-NH2) at 30 μM, or apocynin (Apo) at 300 μM was applied, together with atRAL. (A) Retinal morphology was examined after incubation with atRAL and with and without drugs. […] (B) TUNEL staining was performed with the ApoTag Peroxidase in Situ Apoptosis Detection Kit. Counter nuclear staining was accomplished with methyl green. […] (D) Retinas were removed from eyecups of 4-wk-old C57BL/6J mice and cultured with or without 30 μM of atRAL for 24 h at 37° C. After incubation, retinas were washed twice with PBS and then examined by TPM. Spectra from photoreceptor outer segments are shown (Left) along with representative magnified images (Right). Spectra from retinas cultured with atRAL featured a broad maximum absorption at 600 nm.
as §1
The primary cause of acute retinal degeneration after bright light exposure in Abca4^−/−Rdh8^−/− mice is the delayed clearance of atRAL from photoreceptors. […] Thus, to examine whether retinal tissue lacking RPE cells can display degenerative changes similar to those observed in in vivo, we performed ex vivo culture experiments with retinal explants coincubated with atRAL. Neural retinas were dissected from eyes of 4-wk-old WT mice, and incubated with 30 μM of atRAL in the presence of control vehicle, 30 μM of retinylamine or 300 μM of apocynin for 6 h at 37° C. […] Cell death rates were calculated by measuring lactate dehydrogenase released into tissue culture supernatants from dying cells.

[3] = test system: RPE of Abca4^−/−Rdh8^−/− (DKO) mice; assay: two-photon trans-pupil imaging of fluorescent granules in RPE after bright light; settings: 2 mg Ret-NH2 gavage 13 to 16 h prior to 10,000 lux for 60 min; ex vivo imaging 7 and 14 days after light
Source text: All animal procedures and experiments were approved by the Institutional Animal Care and Use Committee at Case Western Reserve University and conformed to recommendations of both the American Veterinary Medical Association Panel on Euthanasia and the Association for Research in Vision and Ophthalmology. B6(Cg)-Tyrc-2J/J mice were purchased from The Jackson Laboratory. Abca4^−/−Rdh8^−/− (DKO) and Rpe65^−/− mice were generated and genotyped as previously described. Human opsinGFP fusion, knockin hrhoG/hrhoG mice, expressing human rhodopsinGFP in photoreceptor outer segments were kindly provided by Dr. John H. Wilson (Baylor College of Medicine). […]
After treatment with Ret-NH2 the content of fluorescent retinyl esters increases in the eye as reported previously. […] For quantification of the impact of drug treatment, the same detector settings were used for mice that were treated and not treated with Ret-NH2. […]
The tunable, 690-1050 nm, Chameleon VisionS generated 75 fs laser pulses at 80 MHz pulse repetition frequency. […] In twophoton imaging, the excitation matters most because the emission fluorescence is generated only in the focal spot; therefore, it is critical to achieve a tightly focused excitation beam. […]

retinoid cycle = retinoid cycle inhibition before light exposure, LC/MS metabolic profile of retina; type: in vivo; settings: pretreatment of Abca4^−/−Rdh8^−/− mice several hours before light exposure
Method: At day 3 after light exposure, mouse retinas were dissected and homogenized in 0.3 mL of ice-cold acetonitrile. Samples were vortexed for 30 s followed by centrifugation for 15 min at 16,000×g. Clear supernatants were collected and used directly for LC/MS analyses. Each retinal extract was injected onto a reverse-phase C18 Phenomenex HPLC column (250×4.60 mm; 5 μm) preequilibrated with 5% acetonitrile in water. […] Total ion chromatograms were analyzed with XCMS software available online at the Scripps Center for Metabolomics.
Fluorophores responsible for AF in the retina could be an indicator of global changes in the metabolic profile of this tissue. To evaluate and quantify these changes as well as determine whether they depend on a functional retinoid cycle, we used both genetically altered (Lrat^−/−) and pharmacologically treated (retinylamine) mice with metabolic profiles that were compared with light-exposed and dark-adapted Abca4^−/−Rdh8^−/− mice by using a LC/MS approach. […] To investigate the origin of these light-induced alterations, we first analyzed the metabolic profile of retinal samples isolated from light-exposed lecithin:retinol acyltransferase (LRAT)-deficient mice that cannot produce visual chromophore. […]

[4] = test system: RPE of wild type (WT) mice; assay: two-photon imaging of retinosomes in WT mouse RPE; type: in vivo; settings: WT mice pre-treated with Ret-NH2, white light 5,000 lux before imaging, laser power reduced by 17%
Method: To enhance the visibility of retinosomes, WT mice without any drug treatment or treated with Ret-NH2 were exposed to 5,000 lux of white light for 5-30 min, 1 to 3 h before imaging.
To assess the capabilities of our system to characterize the RPE and retina we imaged ex vivo eyes of mice with different genetic backgrounds. The brightest RPE images were obtained in Rpe65^−/− mice in response to 730 nm excitation (FIG. 17a). The brightly fluorescent granules correspond to enlarged retinosomes, which are a characteristic feature of the RPE only in Rpe65^−/− mice due to blockade of 11cisretinol synthesis. […] We also imaged and counted the neuronal nuclei in the ganglion cell layer at 0.6 mm eccentricity and found 2,500 nuclei per mm2 (FIG. 17d), which is smaller than previously reported about 7,000 per mm2 of combined ganglion and displaced amacrine cells in stained retina. This difference arises from: a) nuclei are free of fluorophores, and are only visible as dark structures against brighter cell bodies, which can lead to obstruction of the nuclei by axon bundles; b) not all the cell nuclei were at the same imaging depth; and c) the estimates of the area could be off by 40% because they were determined by comparing measurements of optic disk in en face TPM images to histological sections. […]

[5] = after treatment with Ret-NH2; diminished 7 days after treatment; cited from earlier work
Abca4^−/−Rdh8^−/− mice = assay: light-induced retinal degeneration in Abca4^−/−Rdh8^−/− mice, TPM and histology at day 7; settings: for light-induced retinal degeneration (retinal histology): Ret-NH2 1 mg per mouse oral gavage 16 h before, or Apo 1 mg/mouse i.p. 30 min before 10,000 lx light for 60 min, day 7

Compound	retinal morphology (ONL) after incubation with atRAL ([1]; 30 μM atRAL with vehicle, Dko retinas)	retinal cell death (LDH assay) caused by atRAL ([1]; 30 μM atRAL, Dko retinal culture supernatants)	protection of retinal morphology against atRAL-induced damage [2]	prevention of atRAL-induced photoreceptor apoptosis (TUNEL staining) ([2]; listed as Ret-NH2)	effect on atRAL-induced cell death rate (LDH assay) ([1]; Dko retinas)	accumulation of fluorescent granules in the RPE [3]	regeneration of visual chromophore in the eye (retinoid cycle)	visibility of retinosomes in RPE [4]	content of fluorescent retinyl esters in the eye [5]	RPE autofluorescence appearance by TPM (Abca4^−/−Rdh8^−/− mice; 730 nm and 850 nm excitation, day 7 after light, Ret-NH2 1 mg oral gavage, Apo 1 mg i.p.)	light-induced retinal degeneration (retinal histology) (Abca4^−/−Rdh8^−/− mice)	prevention of atRAL-induced photoreceptor apoptosis (TUNEL staining) ([2]; listed as APO)
CC1=C(/C=C/C(C)=C/C=C/C(C)=C/C=O)C(C)(C)CCC1 [atRAL, all-trans-retinaldehyde]	markedly disrupted	caused retinal cell death	–	–	–	–	–	–	–	–	–	–
CC1=C(/C=C/C(C)=C/C=C/C(C)=C/CN)C(C)(C)CCC1 [retinylamine]	–	–	protected the ONL and INL	protected the ONL and INL	reduced	no deposits; also recorded: protects RPE	markedly reduced	more clearly visible	increases	increased fluorescence of retinosomes	can be prevented; also recorded: conferred protection	–
COc1cc(C(C)=O)ccc1O [apocynin]	–	–	protected the ONL and INL	–	reduced	–	–	–	–	–	can be prevented; also recorded: conferred protection	protected the ONL and INL

Reference: patent US20160345827A1, “TWO-PHOTON MICROSCOPY IMAGING RETINA CELL DAMAGE” (POLGENIX, INC., priority 2014, published 2016)
